Laboratory results reported in patent US20260263644A1, “USE OF POSITRON MYOCARDIAL FATTY ACID METABOLISM IMAGING AGENT AND POSITRON 18F-FDG MYOCARDIAL GLUCOSE IMAGING AGENT IN PET COMBINED IMAGING” (priority 2023, published 2026).

Experiments:
[1] = tested on: anterior wall myocardium with chronic myocardial infarction; assay: Combined 18F-FDG and XTR003 PET myocardial metabolic imaging under fasting in the chronic myocardial infarction pig model; format: in vivo, Bama miniature pig; conditions: for uptake in the myocardial infarction area (PET myocardial metabolic image): 18F-FDG 1mCi first
Experimental: Each experiment used a Bama miniature pig approximately one year old, and the experiment was repeated three times. Taking the second of the three experiments as an example: the piglet weighed approximately 10 kg. A constrictive ring was placed at the site of the left anterior descending coronary artery to gradually induce chronic myocardial infarction in the anterior wall myocardium. Four weeks later, for comparative purposes, a ^99mTc-Sestamibi SPECT myocardial perfusion imaging was performed in the morning (this imaging is the gold standard for assessing viable and scarred myocardium in the infarcted area and was used in this study as a reference for comparing PET imaging results). In the afternoon, a one-day protocol for combined ^18F-FDG and XTR003 PET imaging was performed (with at least 2-hour interval from the SPECT conducted in the morning, during which fasting was maintained). ^18F-FDG PET imaging was performed first, followed by XTR003 PET imaging. The injection doses of the above two agents were 1mCi and 2.5mCi, respectively. XTR003 was injected 1 hour after the ^18F-FDG injection, followed immediately by PET imaging. Each experiment used a Bama miniature pig about one year old, and the experiment was repeated three times. Taking the second of the three experiments as an example: the piglet weighed approximately 11 kg. A constriction ring was placed at the site of the left anterior descending coronary artery to gradually induce chronic myocardial infarction in the anterior wall myocardium. Three weeks later, for comparative purposes, a 99mTc-Sestamibi SPECT myocardial perfusion imaging was performed in the morning. In the afternoon, a one-day protocol combining ^18F-FDG and XTR003 PET imaging was performed, ^18F-FDG PET imaging was performed first, followed by XTR003 PET imaging. The injection doses of the above two agents were 1mCi and 3.1mCi, respectively. Among them, XTR003 was injected 1 hour after the ^18F-FDG injection, followed immediately by PET imaging. A disease animal model was constructed as described in Example 1. After myocardial perfusion imaging, “a one-day protocol combining ^18F-FDG PET and XTR003 PET imaging” was performed, wherein XTR003 was injected one hour after the injection of ^18F-FDG, followed immediately by PET imaging. The only difference between the Comparative Example and Example 1 is that the injection doses of the above two agents were 1 mCi and 0.25 mCi, respectively. The results of the combined ^18F-FDG and XTR003 PET imaging (also used the second experiment out of three replicates as an example) are shown in FIGS. 3a-3b. In the Figs.: An animal model of the disease was constructed as described in Example 1, differing only in the order of imaging; specifically, XTR003 PET imaging was performed first, followed by ^18F-FDG PET imaging. The injection doses of the two agents were 1 mCi and 3 mCi, respectively. In the Figs.: An animal model of the disease was constructed as described in Example 3. After myocardial perfusion, “a one-day protocol combining XTR003 PET and ^18F-FDG PET imaging” was performed, wherein ^18F-FDG was injected one hour after the injection of XTR003, followed immediately by PET imaging. The only difference between the Comparative Example and Example 3 was that the injection doses of the above two agents were 1 mCi and 0.25 mCi, respectively. In the Figs.: The disease animal model was constructed according to the description of Example 1. The only difference from Example 1 was that after the myocardial perfusion imaging, a “two-day protocol combining ^18F-FDG PET and XTR003 PET imaging” was performed instead of the “one-day protocol”. In the Figs.: An animal model of the disease was constructed as described in Example 1. After myocardial perfusion imaging, a “a one-day protocol combining ^18F-FDG PET and XTR003 PET imaging” was performed, wherein XTR003 was injected one hour after the injection of ^18F-FDG, followed immediately by PET imaging. […]

normal myocardium = assay: Separate PET imaging with a single imaging agent, without combination; format: in vivo, Bama miniature pig; conditions: Comparative Example 3; fasting; each agent administered separately, not in combination; FIGS. 7a, 7b
Experimental: Each experiment was performed using a Bama miniature pig of about one year old, and the experiment was repeated three times; taking the second experiment of the three experiments as an example: the piglet weighed about 10 kg, and the two imaging agents were administered separately for imaging rather than in combination. The results of separate PET imaging with ^18F-FDG and XTR003 are shown in FIGS. 7a and 7b, respectively.

CCCCCCCCC([18F])CCCCC1CC1CC(=O)O (stereo not shown) [XTR003]
image quality of myocardial metabolic images ([1]; Comparative Example 1, one-day protocol, 18F-FDG 1 mCi first, then XTR003 0.25 mCi, FIGS. 3a-3b): excessive image noise
image quality of myocardial metabolic images ([1]; Comparative Example 2, one-day protocol, XTR003 1 mCi first, then 18F-FDG 0.25 mCi, FIGS. 5a-5b): normal image quality
uptake in the myocardial infarction area (PET myocardial metabolic image) ([1]; Example 1, one-day protocol, XTR003 2.5mCi injected 1 hour later, FIGS. 1b-1c): moderate uptake
uptake in the myocardial infarction area (PET myocardial metabolic image) ([1]; Example 2, one-day protocol, XTR003 3.1mCi injected 1 hour later, FIGS. 2b-2c): no XTR003 uptake
image quality of myocardial metabolic images ([1]; Example 3, one-day protocol, XTR003 1 mCi first, then 18F-FDG 3 mCi, FIGS. 4a-4b): normal image quality
image quality of myocardial metabolic images ([1]; Example 4, two-day protocol, FIGS. 6a-6b): normal image quality
visibility of myocardial metabolic images (normal myocardium): can show normal image
